Reference: patent US10597388B2, “Pyridazinone herbicides” (FMC CORPORATION, priority 2014, dated 2020)

Experiments:
Assay type in all cases: in vivo
[1] = test system: blackgrass (Alopecurus myosuroides); experiment: Test A greenhouse herbicide test, postemergence; conditions: for Blackgrass plant response rating: 0 is no effect, 100 is complete control
Procedure, shortened: (§1)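 Scores are visual injury ratings from 0 (no effect) to 100 (complete control) versus untreated plants, taken roughly 10 d after treatment in the greenhouse. Treatment was postemergence, on one- to two-leaf plants 2–10 cm high growing in a loam soil/sand mix.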

[2] = test system: galium (catchweed bedstraw, Galium aparine); experiment: Test A greenhouse herbicide test, postemergence; conditions: for Galium plant response rating: 0 is no effect, 100 is complete control
Procedure, shortened: as §1

[3] = test system: kochia (Kochia scoparia); experiment: Test C greenhouse herbicide test, postemergence
Description: (§2) At the same time, plants selected from these crop and weed species and also chickweed (common chickweed, Stellaria media), kochia (Kochia scoparia), and oat, wild (wild oat, Avena fatua), were planted in pots containing Redi-Earth® planting medium (Scotts Company, 14111 Scottslawn Road, Marysville, Ohio 43041) comprising spaghnum peat moss, vermiculite, wetting agent and starter nutrients and treated with postemergence applications of test chemicals formulated in the same manner. Plants ranged in height from 2 to 18 cm (1- to 4-leaf stage) for postemergence treatments. Treated plants and controls were maintained in a greenhouse for 13 to 15 d, after which time all species were compared to controls and visually evaluated. Plant response ratings, summarized in Table C, are based on a scale of 0 to 100 where 0 is no effect and 100 is complete control. A dash (-) response means no test result.

[4] = test system: oat, wild (wild oat, Avena fatua); experiment: Test C greenhouse herbicide test, postemergence
Description: as §2

[5] = test system: wheat (Triticum aestivum); experiment: Test A greenhouse herbicide test, pre- and postemergence; conditions: Postemergence; for Wheat plant response rating: 0 is no effect, 100 is complete control
Procedure, shortened: (§3)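 Visual injury ratings, 0 (no effect) to 100 (complete control), versus untreated plants after roughly 10 d in a greenhouse. Compounds, formulated in a surfactant-containing non-phytotoxic solvent, were sprayed on loam–sand soil after sowing (pre) or on one- to two-leaf plants 2–10 cm tall (post).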

[6] = test system: kochia (Kochia scoparia); experiment: as above
Procedure, shortened: as §3

[7] = test system: foxtail, giant (giant foxtail, Setaria faberii); experiment: as above
Procedure, shortened: as §3

[8] = test system: barnyardgrass (Echinochloa crus-galli); experiment: as above
Procedure, shortened: as §3

[9] = test system: ragweed (common ragweed, Ambrosia elatior); experiment: as above
Procedure, shortened: as §3

[10] = test system: corn (Zea mays); experiment: as above; conditions: Postemergence; for Corn plant response rating: 0 is no effect, 100 is complete control
Procedure, shortened: as §3

[11] = test system: pigweed (Amaranthus retroflexus); experiment: as above
Procedure, shortened: as §3

[12] = test system: ryegrass, Italian (Italian ryegrass, Lolium multiflorum); experiment: as above
Procedure, shortened: as §3

[13] = 125 g ai/ha, 0 to 100 scale where 0 is no effect and 100 is complete control
[14] = Postemergence, 31 g ai/ha, 0 to 100 scale (0 no effect, 100 complete control)
[15] = Postemergence, 125 g ai/ha, scale 0 to 100, 0 is no effect, 100 is complete control
[16] = Postemergence, 250 g ai/ha, scale 0 to 100, 0 no effect, 100 complete control, 13 to 15 d
[17] = postemergence, 62 g ai/ha, scale 0 to 100, 0 no effect, 100 complete control
[18] = Postemergence, 125 g ai/ha, 0 to 100 scale where 0 is no effect and 100 is complete control
[19] = Postemergence, 500 g ai/ha, 0 to 100 scale, 0 is no effect, 100 is complete control
[20] = Preemergence, 125 g ai/ha, 0 to 100 scale where 0 is no effect and 100 is complete control
[21] = Preemergence, 500 g ai/ha, 0 to 100 scale, 0 no effect, 100 complete control
[22] = 125 g ai/ha, visual rating after approx. 10 d, 0 to 100 scale (0 no effect, 100 complete control)
[23] = Postemergence, 125 g ai/ha, visual rating after approx. 10 d, 0 to 100 scale (0 no effect, 100 complete control)
[24] = 125 g ai/ha, 0 to 100 scale, 0 no effect, 100 complete control
[25] = 500 g ai/ha, visual rating after approx. 10 d, 0 to 100 scale (0 no effect, 100 complete control)
[26] = Postemergence, 31 g ai/ha, scale 0 to 100 (0 no effect, 100 complete control)
[27] = Postemergence, 62 g ai/ha, 0 to 100 scale (0 no effect, 100 complete control)
[28] = postemergence, 125 g ai/ha, scale 0 to 100, 0 no effect, 100 complete control
[29] = Postemergence, 125 g ai/ha, 0 to 100 scale, 0 no effect, 100 complete control
[30] = Postemergence, 500 g ai/ha, visual rating after approx. 10 d, 0 to 100 scale (0 no effect, 100 complete control)
[31] = Preemergence, 125 g ai/ha, visual injury rating, 0 to 100 scale (0 no effect, 100 complete control), approx. 10 d
[32] = Preemergence, 500 g ai/ha, 0 to 100 scale where 0 is no effect and 100 is complete control

CCC(=O)Oc1c(C)nn(C)c(=O)c1-c1c(C)sc2ccc(C)cc12 [Compound 42]
0: Plant response rating, Wheat [5, 13] | Plant response rating, Corn [10, 13]
90: Blackgrass plant response rating ([1]; 500 g ai/ha, 0 to 100 scale) | Kochia plant response rating [3, 14] | Plant response rating, Oat, Wild [4, 15] | Oat, Wild plant response rating [4, 17] | Plant response rating, Foxtail, Giant [7, 18] | Barnyardgrass plant response rating [8, 19] | Ragweed plant response rating [9, 20] | Plant response rating, Pigweed [11, 18]
80: Plant response rating, Blackgrass [1, 13] | Kochia plant response rating [6, 20] | Foxtail, Giant plant response rating [7, 20] | Barnyardgrass plant response rating [8, 20]
95: Plant response rating, Oat, Wild [4, 16]
30: Plant response rating, Barnyardgrass [8, 18]
20: Wheat plant response rating ([5]; 500 g ai/ha, 0 to 100 scale) | Corn plant response rating ([10]; 500 g ai/ha, 0 to 100 scale)
100: Plant response rating, Galium [2, 13] | Galium plant response rating ([2]; 500 g ai/ha, 0 to 100 scale) | Plant response rating, Kochia [3, 15] | Plant response rating, Kochia [3, 16] | Kochia plant response rating [3, 17] | Plant response rating, Kochia [6, 18] | Kochia plant response rating [6, 19] | Plant response rating, Kochia [6, 21] | Foxtail, Giant plant response rating [7, 19] | Plant response rating, Foxtail, Giant [7, 21] | Plant response rating, Barnyardgrass [8, 21] | Plant response rating, Ragweed [9, 18] | Ragweed plant response rating [9, 19] | Plant response rating, Ragweed [9, 21] | Pigweed plant response rating [11, 19] | Pigweed plant response rating [11, 20] | Plant response rating, Pigweed [11, 21] | Plant response rating, Ryegrass, Italian [12, 18] | Ryegrass, Italian plant response rating [12, 19] | Ryegrass, Italian plant response rating [12, 20] | Plant response rating, Ryegrass, Italian [12, 21]
75: Oat, Wild plant response rating [4, 14]

CCOC(=O)Oc1c(C)nn(C)c(=O)c1-c1c(CC)ccc2ccccc12 [Compound 37]
60: Plant response rating, Blackgrass [1, 22] | Oat, Wild plant response rating [4, 14] | Plant response rating, Kochia [6, 23] | Plant response rating, Barnyardgrass [8, 23]
0: Kochia plant response rating [3, 14] | Kochia plant response rating [3, 17] | Plant response rating, Corn [10, 22]
90: Plant response rating, Oat, Wild [4, 15] | Plant response rating, Oat, Wild [4, 16] | Kochia plant response rating [6, 19] | Foxtail, Giant plant response rating [7, 19] | Plant response rating, Foxtail, Giant [7, 21] | Barnyardgrass plant response rating [8, 19] | Plant response rating, Barnyardgrass [8, 21] | Plant response rating, Ragweed [9, 23] | Ragweed plant response rating [9, 19] | Plant response rating, Ragweed [9, 21] | Plant response rating, Ryegrass, Italian [12, 18] | Ryegrass, Italian plant response rating [12, 20]
40: Plant response rating, Wheat [5, 13] | Corn plant response rating ([10]; 500 g ai/ha, 0 to 100 scale)
100: Blackgrass plant response rating ([1]; 500 g ai/ha, 0 to 100 scale) | Plant response rating, Galium [2, 22] | Galium plant response rating ([2]; 500 g ai/ha, 0 to 100 scale) | Plant response rating, Pigweed [11, 23] | Pigweed plant response rating [11, 19] | Pigweed plant response rating [11, 20] | Plant response rating, Pigweed [11, 21] | Ryegrass, Italian plant response rating [12, 19] | Plant response rating, Ryegrass, Italian [12, 21]
5: Plant response rating, Kochia [3, 15]
70: Foxtail, Giant plant response rating [7, 20]
80: Plant response rating, Kochia [3, 16] | Oat, Wild plant response rating [4, 17] | Wheat plant response rating ([5]; 500 g ai/ha, 0 to 100 scale) | Plant response rating, Kochia [6, 21] | Plant response rating, Foxtail, Giant [7, 23] | Ragweed plant response rating [9, 20]
30: Kochia plant response rating [6, 20] | Barnyardgrass plant response rating [8, 20]

Cc1cc(C)c2ccccc2c1-c1c(OS(C)(=O)=O)c(C)nn(C)c1=O [Compound 154]
70: Plant response rating, Blackgrass [1, 24] | Plant response rating, Barnyardgrass [8, 31]
40: Plant response rating, Corn [10, 25]
55: Plant response rating, Oat, Wild [4, 26]
100: Plant response rating, Galium [2, 24] | Plant response rating, Galium [2, 25] | Plant response rating, Foxtail, Giant [7, 32] | Plant response rating, Barnyardgrass [8, 32] | Plant response rating, Pigweed [11, 31] | Plant response rating, Pigweed [11, 32] | Plant response rating, Ryegrass, Italian [12, 30] | Plant response rating, Ryegrass, Italian [12, 32]
50: Plant response rating, Kochia [3, 26] | Kochia plant response rating [3, 27] | Plant response rating, Kochia [6, 30]
60: Kochia plant response rating [3, 28]
80: Plant response rating, Kochia [3, 16] | Oat, Wild plant response rating [4, 27] | Plant response rating, Ragweed [9, 29] | Plant response rating, Ragweed [9, 30] | Plant response rating, Ragweed [9, 31]
0: Plant response rating, Wheat [5, 24] | Plant response rating, Kochia [6, 31] | Plant response rating, Corn [10, 24]
90: Plant response rating, Blackgrass [1, 25] | Plant response rating, Oat, Wild [4, 16] | Oat, Wild plant response rating [4, 28] | Plant response rating, Foxtail, Giant [7, 29] | Plant response rating, Foxtail, Giant [7, 30] | Plant response rating, Foxtail, Giant [7, 31] | Plant response rating, Barnyardgrass [8, 29] | Plant response rating, Barnyardgrass [8, 30] | Plant response rating, Ragweed [9, 32] | Plant response rating, Pigweed [11, 29] | Plant response rating, Pigweed [11, 30] | Plant response rating, Ryegrass, Italian [12, 29] | Plant response rating, Ryegrass, Italian [12, 31]
20: Plant response rating, Wheat [5, 25] | Plant response rating, Kochia [6, 29] | Plant response rating, Kochia [6, 32]
